# From patent publication US10894787B2, “Modulators of the GPR119 receptor and the treatment of disorders related thereto” (Arena Pharmaceuticals, Inc., priority 2010, dated 2021)
# Columns and labels:
# [1] = system: incretin hormone GIP; assay: In vivo incretin hormone GIP release, Total GIP ELISA on plasma; design: species or system mouse; conditions: blood sample after 45 min, male 129SVE mice
# Experimental: Male 129SVE mice (approximately 8-week old) were fasted for 18 h and randomly grouped (n=6) to receive a GPR119 agonist, (Compound 1), at an oral dose of 0.1, 0.3, 1, 3, 10, or 30 mpk (mg/kg body weight). Compounds were delivered orally via a gavage needle (p.o., volume 4 mL/kg), and after 45 min a blood sample was collected to determine plasma total GIP levels. A separate group received vehicle (PET: 80% PEG400, 10% ethanol, 10% Tween80) as control. Plasma GIP levels were determined using a Total GIP ELISA kit from Millipore.
# [2] = system: male 129SVE mice; assay: Oral glucose tolerance test (oGTT) in male 129SVE mice; type: in vivo, mouse; conditions: for Plasma Glucose Mean: N = 6; for % Inhibition of Glucose Excursion: AUC reduction relative to vehicle control
# Experimental: Male 129SVE mice (approximately 8-week old) were fasted for 18 h and randomly grouped (n=6) to receive a GPR119 agonist, (Compound 1), at 0.3, 3, or 30 mg/kg (mg/kg body weight). The compound was delivered orally via a gavage needle (p.o., volume 4 mL/kg) 30 min prior to glucose bolus (3 g/kg) (time=−30 min in FIG. 3), with a separate group receiving vehicle (20% hydroxypropyl-beta-cyclodextrin) as control. At time 0 min. the glucose bolus was administered. Levels of blood glucose were assessed using a glucometer (One-Touch Ultra™, LifeScan) at time −30 minute (prior to compound administration), at 0 min (at time when glucose bolus was given), and at 20, 40, 60, 120 min post glucose bolus. Glucose excursion (AUC (area under the curve) reduction) in compound treated animals relative to vehicle control is given in FIG. 4, and in Table 4.
# [3] = system: male diabetic ZDF rats; assay: Oral glucose tolerance test (oGTT) in male diabetic ZDF rats; type: in vivo, rat; conditions: for Plasma Glucose Mean: N = 6; for % Inhibition of Glucose Excursion: AUC reduction relative to vehicle control, ZDF rats
# Experimental: Male ZDF rats were fasted for 18 h and randomly grouped (n=6) to receive a GPR119 agonist, (Compound 1), at 0.3, 3, 10, or 30 mg/kg (mg compound per kg body weight). The compound was delivered orally via a gavage needle (p.o., volume 4 mL/kg) 60 min prior to glucose bolus (3 g/kg) (time=−60 min in FIG. 1), with a separate group receiving vehicle (20% hydroxypropyl-beta-cyclodextrin) as control. At time 0 min the glucose bolus was administered. Levels of blood glucose were assessed using a glucometer (One-Touch Ultra™ LifeScan) at time −60 minute (prior to compound administration), at 0 min (at time when glucose bolus was given), and at 30, 60, 90, and 120 min post glucose bolus. Glucose excursion (AUC (area under the curve) reduction) in compound treated animals relative to vehicle control is shown in FIG. 2 and Table 2.
# [4] = 0.3 mg/kg p.o., 60 min post glucose bolus
# [5] = 0.3 mg/kg p.o., 120 min post glucose bolus
# [6] = 3.0 mg/kg p.o., 60 min post glucose bolus
# [7] = 3.0 mg/kg p.o., 120 min post glucose bolus
# [8] = 30.0 mg/kg p.o., 60 min post glucose bolus
# [9] = 30.0 mg/kg p.o., 120 min post glucose bolus
smiles,measurement,setting,value
"CN(C)C(=O)c1ccc(Nc2ncnc(N3CCC(c4nc(C(C)(C)F)no4)CC3)c2F)c(F)c1 [Compound 1, 3-fluoro-4-(5-fluoro-6-(4-(3-(2-fluoropropan-2-yl)-1,2,4-oxadiazol-5-yl)piperidin-1-yl)pyrimidin-4-ylamino)-N,N-dimethylbenzamide]","Total Plasma GIP in Mice, Total GIP",[1]; 0.1 mg/kg p.o.,60.92 pg/mL
same,"Total Plasma GIP in Mice, Total GIP",[1]; 0.3 mg/kg p.o.,68.21 pg/mL
same,"Total Plasma GIP in Mice, Total GIP",[1]; 1 mg/kg p.o.,183.8 pg/mL
same,"Total Plasma GIP in Mice, Total GIP",[1]; 3 mg/kg p.o.,318.5 pg/mL
same,"Total Plasma GIP in Mice, Total GIP",[1]; 10 mg/kg p.o.,444.8 pg/mL
same,"Total Plasma GIP in Mice, Total GIP",[1]; 30 mg/kg p.o.,695.0 pg/mL
same,Plasma Glucose Mean,"[2]; 0.3 mg/kg p.o. 30 min prior to glucose bolus, time 0 min",74.2 mg/dL
same,Plasma Glucose Mean,"[2]; 0.3 mg/kg p.o., 20 min post glucose bolus",221.3 mg/dL
same,Plasma Glucose Mean,"[2]; 0.3 mg/kg p.o., 40 min post glucose bolus",274.8 mg/dL
same,Plasma Glucose Mean,[2]; [4],258.2 mg/dL
same,Plasma Glucose Mean,[2]; [5],154.5 mg/dL
same,% Inhibition of Glucose Excursion,"[2]; 0.3 mg/kg p.o., 129SVE mice",16.9%
same,Plasma Glucose Mean,"[2]; 0.3 mg/kg p.o., time -30 min (prior to compound administration)",58.5 mg/dL
same,Plasma Glucose Mean,"[2]; 3.0 mg/kg p.o. 30 min prior to glucose bolus, time 0 min",75.2 mg/dL
same,Plasma Glucose Mean,"[2]; 3.0 mg/kg p.o., 20 min post glucose bolus",206.7 mg/dL
same,Plasma Glucose Mean,"[2]; 3.0 mg/kg p.o., 40 min post glucose bolus",233.0 mg/dL
same,Plasma Glucose Mean,[2]; [6],213.5 mg/dL
same,Plasma Glucose Mean,[2]; [7],138.2 mg/dL
same,% Inhibition of Glucose Excursion,"[2]; 3 mg/kg p.o., 129SVE mice",34.8%
same,Plasma Glucose Mean,"[2]; 3.0 mg/kg p.o., time -30 min (prior to compound administration)",63.5 mg/dL
same,Plasma Glucose Mean,"[2]; 30.0 mg/kg p.o. 30 min prior to glucose bolus, time 0 min",78.7 mg/dL
same,Plasma Glucose Mean,"[2]; 30.0 mg/kg p.o., 20 min post glucose bolus",185.8 mg/dL
same,Plasma Glucose Mean,"[2]; 30.0 mg/kg p.o., 40 min post glucose bolus",216.0 mg/dL
same,Plasma Glucose Mean,[2]; [8],191.7 mg/dL
same,Plasma Glucose Mean,[2]; [9],138.7 mg/dL
same,% Inhibition of Glucose Excursion,"[2]; 30 mg/kg p.o., 129SVE mice",42.1%
same,Plasma Glucose Mean,"[2]; 30.0 mg/kg p.o., time -30 min (prior to compound administration)",64.5 mg/dL
same,Effect on blood glucose after a challenge with glucose,"[2]; 129SVE mice, 0.3-30 mg/kg p.o.",lowered blood glucose
same,Plasma Glucose Mean,"[3]; 0.3 mg/kg p.o. 60 min prior to glucose bolus, time 0 min",89.7 mg/dL
same,Plasma Glucose Mean,"[3]; 0.3 mg/kg p.o., 30 min post glucose bolus",201.7 mg/dL
same,Plasma Glucose Mean,[3]; [4],192.2 mg/dL
same,Plasma Glucose Mean,"[3]; 0.3 mg/kg p.o., 90 min post glucose bolus",185.3 mg/dL
same,Plasma Glucose Mean,[3]; [5],154.8 mg/dL
same,% Inhibition of Glucose Excursion,[3]; 0.3 mg/kg p.o.,6.5%
same,Plasma Glucose Mean,"[3]; 0.3 mg/kg p.o., time -60 min (prior to compound administration)",106.3 mg/dL
same,Plasma Glucose Mean,"[3]; 3.0 mg/kg p.o. 60 min prior to glucose bolus, time 0 min",82.7 mg/dL
same,Plasma Glucose Mean,"[3]; 3.0 mg/kg p.o., 30 min post glucose bolus",184.5 mg/dL
same,Plasma Glucose Mean,[3]; [6],144.2 mg/dL
same,Plasma Glucose Mean,"[3]; 3.0 mg/kg p.o., 90 min post glucose bolus",151.2 mg/dL
same,Plasma Glucose Mean,[3]; [7],146.2 mg/dL
same,% Inhibition of Glucose Excursion,[3]; 3 mg/kg p.o.,47.0%
same,Plasma Glucose Mean,"[3]; 3.0 mg/kg p.o., time -60 min (prior to compound administration)",110.0 mg/dL
same,Plasma Glucose Mean,"[3]; 10.0 mg/kg p.o. 60 min prior to glucose bolus, time 0 min",76.0 mg/dL
same,Plasma Glucose Mean,"[3]; 10.0 mg/kg p.o., 30 min post glucose bolus",174.0 mg/dL
same,Plasma Glucose Mean,"[3]; 10.0 mg/kg p.o., 60 min post glucose bolus",135.8 mg/dL
same,Plasma Glucose Mean,"[3]; 10.0 mg/kg p.o., 90 min post glucose bolus",141.3 mg/dL
same,Plasma Glucose Mean,"[3]; 10.0 mg/kg p.o., 120 min post glucose bolus",132.5 mg/dL
same,% Inhibition of Glucose Excursion,[3]; 10 mg/kg p.o.,60.1%
same,Plasma Glucose Mean,"[3]; 10.0 mg/kg p.o., time -60 min (prior to compound administration)",108.7 mg/dL
same,Plasma Glucose Mean,"[3]; 30.0 mg/kg p.o. 60 min prior to glucose bolus, time 0 min",93.0 mg/dL
same,Plasma Glucose Mean,"[3]; 30.0 mg/kg p.o., 30 min post glucose bolus",197.0 mg/dL
same,Plasma Glucose Mean,[3]; [8],124.8 mg/dL
same,Plasma Glucose Mean,"[3]; 30.0 mg/kg p.o., 90 min post glucose bolus",135.8 mg/dL
same,Plasma Glucose Mean,[3]; [9],130.2 mg/dL
same,% Inhibition of Glucose Excursion,[3]; 30 mg/kg p.o.,52.1%
same,Plasma Glucose Mean,"[3]; 30.0 mg/kg p.o., time -60 min (prior to compound administration)",104.8 mg/dL
same,Effect on blood glucose after a challenge with glucose,"[3]; diabetic ZDF rats, 0.3-30 mg/kg p.o.",lowered blood glucose
